One data set relates to amyloid deposits. Description: Amyloid deposition in the hippocampus (antibody 4G8 immunostaining). The format is in vivo, mice. As to conditions: for amyloid deposits in the hippocampus: 3×Tg AD mice (untreated: average of 4); for amyloid deposition in the hippocampus: WT mice. The procedure: (§1) Tissue preparation: Mice were deeply anesthetized with 3% isoflourane vapor and euthanized by cervical dislocation. Brain tissues were harvested, and then either snap frozen for Western Blot analysis or fixed in 4% paraformaldehyde overnight for immunohistochemistry (IHC) analysis. Fixed brain tissues were washed with phosphate-buffered saline (PBS) and moved to cryoprotectant (30% sucrose in PBS) at 4° C. Once sunk in the cryoprotectant, brain tissues were subsequently embedded in the optimal cutting temperature compound (O.C.T) and rapidly frozen with chilled isopentane. Then, 8˜30 μm thickness of cryostate section was applied to brain tissues, 30 μm sections were immersed in the PBS and store at 4° C. refrigerator, and 8 μm sections were store at −80° C. refrigerator.
(§2) Immunohistochemistry analysis: All sections were first treated with 1% H2O2 in PBS for 20 minutes at room temperature, then incubated with 0.5% Triton X-100 for 30 minutes and blocked for 30 minutes at room temperature. Brain tissues were incubated with primary antibodies from Table 6, below. […] All sections were eventually dehydrated in 95% ethanol and mounted on coverslips for light microscopy (Carl Zeiss, Thornwood, New York, United States of America).
(§3) Methods: Brain tissues collected from each treatment group of mice from the behavior studies were subjected to pathological analysis (e.g., immunohistochemical analysis, as described above in Example 5). […] Growth cone dynamics and spine motility were either recorded with time-lapse microscopy or stained by using the fluorescein isothiocyanate (FITC) or Cyanine Dye 3 (Cy3)-conjugated Phalloidin.

The subject of the next data set is microglia. Kind of data set: Pro-inflammatory microglia in the hippocampus (Iba-1). It counts as in vivo. As to conditions: WT mice; 20× objective lens. The procedure:
as §1, §2, §3

Data set [1] has as its system microtubule-associated tau. Kind of data set: Tau phosphorylation in the dentate gyrus (antibody AT8 immunostaining). The format is in vivo, mice. Here is the method: as §1, §2, §3
The next data set relates to mice. Description: Long-term survival after one injection. The format is in vivo. As to conditions: mouse, in vivo. Here is the method: Long-term Survival. Groups of 10 mice were treated with one injection of ZCL278 (up to 0.8 mg/g), ZCL279 (up to 0.6 mg/g), or ZCL367 (up to 1.6 mg/g) to examine potential lethal dosage (the maximal dosage tested when no mice died). […] Durations longer than 3 months have not been tested. As a reference, working dosage for the behavioral assessment described below used 20 ug/g for injection, […] than the highest dosage of 0.8 mg/g tested in the long-term survival experiment.

The next data set deals with WT and 3×Tg-AD mice. Description: Eyeblink classical conditioning test. The format is in vivo. The source says:
Six-month-old C57/BL6 (WT) and 3×Tg-AD mice with an average weight of 24 g from Jackson Laboratory (Bar Harbor, Maine, United States of America) were used. The 3×Tg-AD mice in hybrid 129/C57BL/6 background contain two mutant human transgenes, hAPP harboring Swedish mutation (hAPPswe) and mutant htau (htau301L) under a neuron-specific promoter, and also contain the knock-in mutant presenilin 1 (PS1M146V). See Oddo et al. (2003) Neuron 39:409-421). 3×Tg-AD mice were received from Jackson Laboratory as Psen1 B6:129-Psen1<tmMpm>Tg(APPSwetauP301L)1Lfa/J and the wild type control as SF2: (B6129SF1/J+p+Tyr-c+Mgf-SIJ)F2. All mice were subjected to two weeks of training for familiarizing behavioral test procedures. Subsequently, mice were assayed to establish a baseline of behavior tests before ZCL compound treatment. Then, mice were separated into three treatment groups (Control, ZCL278 and ZCL279). Both ZCL278 and ZCL279 were dissolved in sesame oil with 5% DMSO and each treatment was administrated via an intraperitoneal injection. All treatment groups of mice were treated once a week. Control group was treated with 130 μl 5% DMSO in sesame oil. ZCL278 and ZCL279 groups were treated with 20 μg/g ZCL 278 or ZCL 279 in sesame oil (5% DMSO). On the day following drug treatment, all mice were subjected to a burrowing test, nesting test and contact avoidance evaluations. On the 4th week of experiment, selected female mice from each group were submitted to Morris water maze test and eye blink test.
Eye blinking test: Eyeblink classical conditioning (ECC) behavior testing was performed based on a method described previously. See Rufer et al., PLoS One, 2012, 7(10):e47499; and Thomas & Tran, Hippocampus, 2012, 22:619-630. Briefly, the day after ZCL compound treatment, two stainless steel recording electrodes (3T, Medwire, Mount Vernon, New York, United States of America) were implanted in the left orbicularis oculi muscle in all mice, and a bipolar stimulating electrode adjacent to the left eye. […]

The target of a further data set is Cdc42 (Homo sapiens, UniProt P60953). Kind of data set: mant-GTP binding to Cdc42 with or without GEF/DH domain. It counts as biochemical. Set-up: purchased Cytoskeleton Inc. The settings on record: 5-500 μM. The procedure:
Cdc42 (1 μM) was incubated with mant-GTP (1.5 μM) and varying concentrations of ZCL278, ZCL279, or ZCL367 (5-500 μM). Fluorescent readings were taken every minute for 10 m to acquire the baseline. The GEF/DH domain (0.08-0.2 μM) was added followed by readings taken every minute for another 30 m. The linear phase was calculated from within the time period of 12-22 m. Cdc42 (1 μM) was incubated with mant-GTP (1.5 μM) and varying concentrations of ZCL278, ZCL279, or ZCL367 (5-500 μM). Fluorescent readings were taken every minute for 30 m to monitor the binding of mant-GTP in the absence of GEF/DH domain.

Chain of Cdc42 (P60953 whole entry, the tested form may be a part): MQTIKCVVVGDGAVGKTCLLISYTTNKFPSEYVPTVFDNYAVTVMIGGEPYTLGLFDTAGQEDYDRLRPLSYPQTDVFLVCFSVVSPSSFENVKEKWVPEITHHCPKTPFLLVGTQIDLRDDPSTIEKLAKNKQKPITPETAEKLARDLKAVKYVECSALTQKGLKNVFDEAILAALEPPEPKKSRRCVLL

Regarding `Cc1cc(C)nc(NS(=O)(=O)c2ccc(NC(=S)NC(=O)COc3ccc(Br)cc3Cl)cc2)n1` [ZCL278, 4-(3-(2-(4-bromo-2-chloro-phenoxy)-acetyl)-thioureido)-N-(4,6-dimethylpyrimidin-2-yl)-benzenesulfonamide], in the data set with amyloid deposits, the “amyloid deposits in the hippocampus” value is “no amyloid deposits” and the “amyloid deposition in the hippocampus” value is listed as “No amyloid deposition”. In addition, in the data set with microglia, the “Average Number of Microglia per Microscope Field, CA1” value was determined as 12; the “Average Number of Microglia per Microscope Field, CA2-3” value amounted to 10; the “Average Number of Microglia per Microscope Field, DG” value turned out to be 8. In addition, the “phosphorylation of microtubule-associated tau in the dentate gyrus” value (shortened to “phosphorylation”) in data set [1] (3×Tg AD mice) is recorded as “not evident”. In addition, the “phosphorylation” value in data set [1] (WT mice) was “no evidence”. Besides, in the data set on mice, the “Lethal Dosage” value was 0.8 mg/g and the “Longest Dosing Duration” value is reported as 3 months. Besides, in the data set on WT and 3×Tg-AD mice (WT mice), the CR percentage result is given as “did not significantly change”. On Cdc42 (in the absence of GEF domain), the “effect on Cdc42 (mant-GTP binding)” value is “activates Cdc42”. Moreover, the “effect on Cdc42 (mant-GTP binding)” value on Cdc42 (in the presence of GEF domain) is on record as “acts as an inhibitor”.

In the case of `O=S(=O)(Nc1ccccc1O)c1ccc2oc3ccc(S(=O)(=O)Nc4ccccc4O)cc3c2c1` [ZCL279, N^2,N^8-bis(2-hydroxyphenyl)dibenzo[b,d]furan-2,8-disulfonamide], in the data set with amyloid deposits, the “amyloid deposits in the hippocampus” value is given as “no amyloid deposits” and the “amyloid deposition in the hippocampus” value is “No amyloid deposition”. Besides, in the data set with microglia, the “Average Number of Microglia per Microscope Field, CA1” value was found to be 13; the “Average Number of Microglia per Microscope Field, CA2-3” value is 10; the “Average Number of Microglia per Microscope Field, DG” value is 4. Moreover, in data set [1] (3×Tg AD mice), the “phosphorylation” value was “not evident”. Also, in data set [1] (WT mice), the “phosphorylation” value is “no evidence”. In addition, in the data set with mice, the “Lethal Dosage” value is reported as 0.6 mg/g and the “Longest Dosing Duration” value came out at 3 months. Further, the CR percentage result in the data set on WT and 3×Tg-AD mice (AD mice, after 6 training sessions (control AD mice about 20%)) is “about 35%”. Further, the CR percentage result in the data set with WT and 3×Tg-AD mice (WT mice) is recorded as “did not significantly change”. Further, on Cdc42 (in the absence of GEF domain), the “effect on Cdc42 (mant-GTP binding)” value was “has no effect”. Further, the “effect on Cdc42 (mant-GTP binding)” value at Cdc42 (in the presence of GEF domain) is “activates Cdc42”.

These data come from US12285393B2, “Roles of modulators of intersectin-Cdc42 signaling in Alzheimer's disease” (priority 2017, dated 2025).
